Our source for the inhibition values is ChEMBL document CHEMBL5653615 (J Biol Chem, 2013).

Assay [1] concerns the target Proto-oncogene tyrosine-protein kinase Src (Homo sapiens) (UniProt P12931). The assay can be described thus: Inhibition of human c-Src at 500 nM by HotSpot assay relative to control.
Assay [2] has as its target T1, Homeodomain-interacting protein kinase 4 (Homo sapiens) (UniProt Q8NE63).
T1 sequence (whole entry): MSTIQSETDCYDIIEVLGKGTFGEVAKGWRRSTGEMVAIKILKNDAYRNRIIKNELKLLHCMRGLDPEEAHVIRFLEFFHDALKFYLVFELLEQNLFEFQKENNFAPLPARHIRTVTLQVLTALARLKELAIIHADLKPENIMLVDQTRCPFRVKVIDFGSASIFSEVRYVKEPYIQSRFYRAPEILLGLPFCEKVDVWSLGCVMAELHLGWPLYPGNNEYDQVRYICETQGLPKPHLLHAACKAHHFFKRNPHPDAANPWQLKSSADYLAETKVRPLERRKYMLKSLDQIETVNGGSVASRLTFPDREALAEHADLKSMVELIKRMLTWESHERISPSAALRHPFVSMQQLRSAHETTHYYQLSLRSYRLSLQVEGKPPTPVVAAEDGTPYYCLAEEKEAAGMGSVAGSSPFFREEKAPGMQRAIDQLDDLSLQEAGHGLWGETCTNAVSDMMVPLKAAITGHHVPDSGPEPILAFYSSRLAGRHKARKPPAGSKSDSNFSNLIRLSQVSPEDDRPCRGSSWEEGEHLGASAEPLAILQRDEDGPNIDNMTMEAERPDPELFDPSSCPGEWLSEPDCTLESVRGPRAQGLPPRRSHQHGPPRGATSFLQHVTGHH
The assay can be described thus: Inhibition of human HIPK4 at 500 nM by HotSpot assay relative to control.

Assay [3] concerns the target Ribosomal protein S6 kinase alpha-5 (Homo sapiens) (UniProt O75582). The assay is described as follows: Inhibition of human RPS6KA5 at 500 nM by HotSpot assay relative to control.
Assay [4] concerns the target CDK4/Cyclin D3 (Homo sapiens) (UniProt P11802+P30281). The assay is described as follows: Inhibition of human CDK4/cyclin D3 at 500 nM by HotSpot assay relative to control. The format is protein-complex assay.
For assay [5], the target named is Serine/threonine-protein kinase 25 (Homo sapiens) (UniProt O00506). The assay can be described thus: Inhibition of human YSK1 at 500 nM by HotSpot assay relative to control.
Chain of Serine/threonine-protein kinase 25 (Homo sapiens) (O00506 whole entry, looked up): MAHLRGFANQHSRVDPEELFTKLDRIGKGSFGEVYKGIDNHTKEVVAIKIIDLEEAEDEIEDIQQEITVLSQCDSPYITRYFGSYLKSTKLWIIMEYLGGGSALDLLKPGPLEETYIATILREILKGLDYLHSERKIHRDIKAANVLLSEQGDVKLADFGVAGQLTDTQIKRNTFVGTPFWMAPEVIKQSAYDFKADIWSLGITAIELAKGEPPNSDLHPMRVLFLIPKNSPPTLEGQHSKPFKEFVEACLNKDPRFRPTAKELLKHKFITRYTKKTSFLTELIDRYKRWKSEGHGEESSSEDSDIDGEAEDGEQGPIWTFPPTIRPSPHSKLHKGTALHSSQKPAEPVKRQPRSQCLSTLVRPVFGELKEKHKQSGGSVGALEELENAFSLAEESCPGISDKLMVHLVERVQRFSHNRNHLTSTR
Assay [6] deals with T2, Serine/threonine-protein kinase 17A (Homo sapiens) (UniProt Q9UEE5).
T2 sequence (whole entry): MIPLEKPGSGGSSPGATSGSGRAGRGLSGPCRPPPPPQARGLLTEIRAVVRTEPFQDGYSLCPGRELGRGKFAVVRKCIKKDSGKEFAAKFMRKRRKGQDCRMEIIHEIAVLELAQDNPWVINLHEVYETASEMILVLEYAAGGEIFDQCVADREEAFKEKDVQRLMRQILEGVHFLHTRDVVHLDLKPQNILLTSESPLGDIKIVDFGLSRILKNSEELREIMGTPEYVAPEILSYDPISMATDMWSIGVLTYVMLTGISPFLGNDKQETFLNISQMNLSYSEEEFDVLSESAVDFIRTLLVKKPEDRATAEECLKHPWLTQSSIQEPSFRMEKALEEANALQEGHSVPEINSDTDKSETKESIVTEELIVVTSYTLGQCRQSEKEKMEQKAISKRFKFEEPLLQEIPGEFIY
The assay can be described thus: Inhibition of human DRAK1 at 500 nM by HotSpot assay relative to control.

The target of assay [7] is T3, Discoidin domain-containing receptor 2 (Homo sapiens) (UniProt Q16832).
T3 sequence (whole entry): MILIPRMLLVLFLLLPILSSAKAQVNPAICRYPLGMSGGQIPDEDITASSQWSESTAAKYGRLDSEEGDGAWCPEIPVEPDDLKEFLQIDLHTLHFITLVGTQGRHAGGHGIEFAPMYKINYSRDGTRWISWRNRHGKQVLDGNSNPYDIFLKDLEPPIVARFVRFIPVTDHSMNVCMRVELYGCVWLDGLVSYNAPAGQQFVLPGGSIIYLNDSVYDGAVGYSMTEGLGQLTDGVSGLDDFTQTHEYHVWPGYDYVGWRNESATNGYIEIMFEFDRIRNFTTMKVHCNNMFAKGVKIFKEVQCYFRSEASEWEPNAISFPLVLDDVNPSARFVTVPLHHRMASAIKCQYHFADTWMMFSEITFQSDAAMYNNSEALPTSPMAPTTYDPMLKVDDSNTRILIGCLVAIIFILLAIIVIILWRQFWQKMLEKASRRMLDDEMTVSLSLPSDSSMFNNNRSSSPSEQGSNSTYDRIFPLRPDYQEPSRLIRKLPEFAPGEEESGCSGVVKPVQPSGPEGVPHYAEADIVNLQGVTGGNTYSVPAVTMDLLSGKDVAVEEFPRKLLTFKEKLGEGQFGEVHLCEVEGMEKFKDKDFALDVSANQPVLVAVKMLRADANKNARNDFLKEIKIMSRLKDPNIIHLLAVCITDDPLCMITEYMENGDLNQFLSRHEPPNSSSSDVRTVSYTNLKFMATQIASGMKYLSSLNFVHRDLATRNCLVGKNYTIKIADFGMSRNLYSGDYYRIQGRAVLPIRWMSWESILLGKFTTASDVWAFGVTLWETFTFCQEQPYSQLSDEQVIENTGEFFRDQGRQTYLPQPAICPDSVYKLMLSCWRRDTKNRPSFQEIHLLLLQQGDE
The assay is described as follows: Inhibition of human DDR2 at 500 nM by HotSpot assay relative to control.

The target of assay [8] is RAF proto-oncogene serine/threonine-protein kinase (Homo sapiens) (UniProt P04049). The assay is described as follows: Inhibition of human RAF1 at 500 nM by HotSpot assay relative to control.
Chain of RAF proto-oncogene serine/threonine-protein kinase (Homo sapiens) (P04049 whole entry): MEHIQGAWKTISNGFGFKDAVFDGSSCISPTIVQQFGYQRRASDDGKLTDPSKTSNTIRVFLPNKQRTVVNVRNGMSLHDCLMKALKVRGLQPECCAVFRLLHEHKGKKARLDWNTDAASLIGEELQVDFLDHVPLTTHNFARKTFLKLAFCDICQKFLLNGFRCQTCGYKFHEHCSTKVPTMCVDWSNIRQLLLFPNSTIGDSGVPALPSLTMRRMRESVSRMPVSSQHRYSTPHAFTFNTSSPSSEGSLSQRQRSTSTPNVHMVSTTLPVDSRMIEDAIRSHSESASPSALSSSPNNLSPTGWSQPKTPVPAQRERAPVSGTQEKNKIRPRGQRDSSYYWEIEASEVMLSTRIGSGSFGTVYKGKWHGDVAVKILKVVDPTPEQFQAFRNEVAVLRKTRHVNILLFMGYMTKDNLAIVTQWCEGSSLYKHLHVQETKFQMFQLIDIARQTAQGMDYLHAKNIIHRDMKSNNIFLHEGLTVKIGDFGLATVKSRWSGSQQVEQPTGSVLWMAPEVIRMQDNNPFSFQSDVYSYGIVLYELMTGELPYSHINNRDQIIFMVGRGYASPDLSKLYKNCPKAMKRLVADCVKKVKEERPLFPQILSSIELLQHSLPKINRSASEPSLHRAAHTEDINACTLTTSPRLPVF

What is called inhibition is the relative decrease from the control value, in per cent.

Chain of Proto-oncogene tyrosine-protein kinase Src (Homo sapiens) (P12931 2-536 limits assumed): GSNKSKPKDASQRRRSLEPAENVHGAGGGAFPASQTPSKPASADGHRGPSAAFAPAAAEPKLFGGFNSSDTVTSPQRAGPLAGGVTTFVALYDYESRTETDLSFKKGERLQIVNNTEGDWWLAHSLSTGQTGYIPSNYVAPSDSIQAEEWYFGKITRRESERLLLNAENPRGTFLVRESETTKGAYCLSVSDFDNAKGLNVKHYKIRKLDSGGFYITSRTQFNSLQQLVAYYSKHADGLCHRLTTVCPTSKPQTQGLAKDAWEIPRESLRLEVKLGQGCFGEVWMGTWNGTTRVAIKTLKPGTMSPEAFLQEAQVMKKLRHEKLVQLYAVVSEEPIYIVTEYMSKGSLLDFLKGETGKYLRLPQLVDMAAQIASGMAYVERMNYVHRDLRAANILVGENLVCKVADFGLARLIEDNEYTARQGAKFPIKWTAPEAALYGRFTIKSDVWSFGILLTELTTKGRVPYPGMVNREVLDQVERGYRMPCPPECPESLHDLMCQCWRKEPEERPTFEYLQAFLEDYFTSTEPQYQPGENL
Chain of Ribosomal protein S6 kinase alpha-5 (Homo sapiens) (O75582 whole entry, looked up): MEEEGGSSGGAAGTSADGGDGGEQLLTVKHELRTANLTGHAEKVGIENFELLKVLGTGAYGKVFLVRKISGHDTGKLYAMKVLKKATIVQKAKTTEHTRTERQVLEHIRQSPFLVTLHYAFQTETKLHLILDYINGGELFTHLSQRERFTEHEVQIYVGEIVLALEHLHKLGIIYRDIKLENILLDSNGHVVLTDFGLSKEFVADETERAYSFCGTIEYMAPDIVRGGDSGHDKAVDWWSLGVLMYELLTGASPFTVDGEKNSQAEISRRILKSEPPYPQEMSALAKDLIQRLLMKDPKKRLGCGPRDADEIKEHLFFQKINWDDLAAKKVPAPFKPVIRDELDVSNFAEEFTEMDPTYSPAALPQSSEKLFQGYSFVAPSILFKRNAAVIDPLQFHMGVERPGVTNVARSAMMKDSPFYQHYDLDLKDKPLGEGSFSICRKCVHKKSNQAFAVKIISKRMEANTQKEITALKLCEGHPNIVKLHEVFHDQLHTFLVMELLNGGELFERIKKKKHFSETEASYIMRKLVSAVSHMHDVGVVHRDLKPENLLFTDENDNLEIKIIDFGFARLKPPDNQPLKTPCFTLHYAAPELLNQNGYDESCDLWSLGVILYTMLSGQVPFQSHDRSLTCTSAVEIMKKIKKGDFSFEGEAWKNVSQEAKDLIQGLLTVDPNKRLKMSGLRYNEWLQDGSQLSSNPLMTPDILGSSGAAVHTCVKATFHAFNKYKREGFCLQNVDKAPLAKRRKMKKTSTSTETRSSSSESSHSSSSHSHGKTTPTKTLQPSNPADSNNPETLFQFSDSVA

Turning to `Oc1n[nH]c2nnc(-c3c(-c4ccccc4)nn4ccccc34)cc12`, the inhibition in assay [1] was -2.58%; in assay [2], 9.6%; in assay [3], -5.1%; in assay [4], -0.94%; in assay [5], 4.81%; in assay [6], -1.05%. The inhibition is -2.78% in assay [7] and 1.96% in assay [8].
Consider `Nc1n[nH]c2nnc(-c3c(-c4ccccc4)nn4ccccc34)cc12`, for which the inhibition is -0.45% in assay [1]; 4.73% in assay [2]; -1.32% in assay [3]; -0.36% in assay [4]; 15.8% in assay [5]; 0.09% in assay [6]. Besides, the inhibition in assay [7] was -0.55%; in assay [8], 4.42%.
